Results taken from patent US6706716B2, “Compounds specific for the human α1d adrenergic receptor and uses thereof” (Synaptic Pharmaceutical Corporation, priority 1998, dated 2004).
“Also recorded” adds a separate entry of the source.

Key:
[1] = molecular target: T1, human 5-HT1Dα (5-HT1D) receptor (Homo sapiens, UniProt P28221); experiment: Competition binding ([3H]serotonin) at cloned human 5-HT1Dα (5-HT1D) receptor; settings: read-out: binding affinity (pKi) 5-HT1Dα (5-HT1D) (converted)
T1 construct: expressed in transfected cells; host or cells: LM(tk-) clonal cell line Ltk-8-30-84 (ATCC CRL 10421)
T1 sequence (P28221 whole entry): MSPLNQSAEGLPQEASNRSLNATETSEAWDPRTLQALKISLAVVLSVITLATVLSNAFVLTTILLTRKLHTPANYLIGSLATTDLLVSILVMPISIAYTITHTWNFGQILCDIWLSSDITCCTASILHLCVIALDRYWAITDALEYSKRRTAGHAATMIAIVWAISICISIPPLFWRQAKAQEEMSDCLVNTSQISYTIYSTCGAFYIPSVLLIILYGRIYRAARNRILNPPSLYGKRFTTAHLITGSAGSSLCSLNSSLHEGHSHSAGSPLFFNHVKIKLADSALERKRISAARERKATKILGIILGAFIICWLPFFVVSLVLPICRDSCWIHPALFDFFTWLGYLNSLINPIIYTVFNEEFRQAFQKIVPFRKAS
Method: 5-HT1Dα (5-HT1D) and 5-HT1Dβ (5-HT1B) receptors: The cell lysates of the LM(tk-) clonal cell line stably transfected with the genes encoding each of these 5-HT receptor subtypes were prepared as described above. The cell line for the 5-HT1Dα (5-HT1D) receptor, designated as Ltk-8-30-84, was deposited on Apr. 17, 1990, and accorded ATCC Accession No. CRL 10421. The cell line for the 5-HT1Dβ (5-HT1B) receptor, designated as Ltk-11, was deposited on Apr. 17, 1990, and accorded ATCC Accession No. CRL 10422. These preparations were suspended in 50 mM Tris-HCl buffer (pH 7.4 at 37° C.) containing 10 mM MgCl2, 0.2 mM EDTA, 10 μM pargyline, and 0.1% ascorbate. […] Nonspecific binding was determined in the presence of 10 μM serotonin. The bound radioligand was separated by filtration through GF/B filters using a cell harvester.

[2] = test system: urethane-anesthetized rats; experiment: Blood pressure in urethane-anesthetized, normotensive rats; type: in vivo, rat
Method: Rats were anesthetized with urethane and PE50 cannulae were placed in the femoral artery and vein for blood pressure monitoring and drug administration, respectively. After stabilization, rats were administered 200 μl saline vehicle or increasing doses of BMY 7378 or Compound 7 at 10 minutes intervals until the reduction in blood pressure reached a plateau. The 5-HT1A-selective antagonist WAY 100635 (1 mg/kg) was then administered and blood pressure monitored for an additional 10 minutes.

O=C1CC2(CCCC2)CC(=O)N1CCN1CCN(c2cc(F)c(F)cc2F)CC1 [Compound 7, 8-{2-[4-(2,4,5-Trifluorophenyl)piperazin-1-yl]ethyl}-8-azaspiro[4.5]decane-7,9-dione]
Ki [1]: 794 nM | reversal of the blood pressure effect by WAY 100635 ([2]; 5-HT1A-selective antagonist WAY 100635 1 mg/kg given after plateau): not reversed | effect on systolic, diastolic and mean blood pressure ([2]; urethane-anesthetized rats, increasing i.v. doses at 10 min intervals): reduces blood pressure in anesthetized rat, although to a lesser extent than BMY 7378; also recorded: only a minor reduction in blood pressure
